Reference: ChEMBL document CHEMBL4270577, “Synthesis, anticancer activity and molecular modeling studies of 1,2,4-triazole derivatives as EGFR inhibitors” (Eur J Med Chem, 2018)

How the values were obtained:
UACC-62 = test: Cytotoxicity against human UACC62 cells incubated for 48 hrs by sulforhodamine B assay; type: functional; details: UACC-62, 48 h
KM12 = test: Cytotoxicity against human KM12 cells incubated for 48 hrs by sulforhodamine B assay; type: functional; details: KM12, 48 h
ACHN = test: Cytotoxicity against human ACHN cells incubated for 48 hrs by sulforhodamine B assay; type: functional
HOP-92 = test: Cytotoxicity against human HOP92 cells incubated for 48 hrs by sulforhodamine B assay; type: functional; details: HOP-92, 48 h
[1] = biological target: Serine/threonine-protein kinase B-raf (Mus musculus, UniProt P28028, V600E); test: Inhibition of mouse full length GST-tagged BRAF V600E mutant using recombinant human His6-tagged MEK1 as substrate preincubated for 1 hr followed by substrate addition measured after 25 mins by ELISA
SNB-75 = test: Cytotoxicity against human SNB75 cells incubated for 48 hrs by sulforhodamine B assay; type: functional; details: SNB-75, 48 h
SF-295 = test: Cytotoxicity against human SF295 cells incubated for 48 hrs by sulforhodamine B assay; type: functional; details: SF-295, 48 h
Tubulin (Homo sapiens) = Tubulin (Homo sapiens) (UniProt P68371+Q9H4B7+P0DPH7+P68366+Q13509+Q71U36+P04350+Q3ZCM7+P07437+P68363+Q9BQE3+Q6PEY2+Q13885+Q9BVA1+Q9BUF5); test: Inhibition of tubulin (unknown origin) polymerization assessed as polymerized tubulin level at 5 to 25 uM by fluorescence assay; type: protein-complex assay
SK-MEL-2 = test: Cytotoxicity against human SK-MEL-2 cells incubated for 48 hrs by sulforhodamine B assay; type: functional; details: SK-MEL-2, 48 h
M14 = test: Cytotoxicity against human M14 cells incubated for 48 hrs by sulforhodamine B assay; type: functional; details: M14, 48 h
A549 [2] = test: Induction of apoptosis in human A549 cells assessed as necrotic cells at 1.4 uM after 24 hrs by Annexin V/propidium iodide staining based flow cytometric analysis (reference value: 0.09%); type: functional
786-0 = test: Cytotoxicity against human 786-0 cells incubated for 48 hrs by sulforhodamine B assay; type: functional; details: 786-0, 48 h
NCI-H226 = test: Cytotoxicity against human NCI-H226 cells incubated for 48 hrs by sulforhodamine B assay; type: functional; details: NCI-H226, 48 h
NCI-H23 = test: Cytotoxicity against human NCI-H23 cells incubated for 48 hrs by sulforhodamine B assay; type: functional; details: NCI-H23, 48 h
SF-539 = test: Cytotoxicity against human SF539 cells incubated for 48 hrs by sulforhodamine B assay; type: functional; details: SF-539, 48 h
RPMI-8226 = test: Cytotoxicity against human RPMI8226 cells incubated for 48 hrs by sulforhodamine B assay; type: functional; details: RPMI-8226, 48 h
MOLT-4 = test: Cytotoxicity against human MOLT4 cells incubated for 48 hrs by sulforhodamine B assay; type: functional; details: MOLT-4, 48 h
NCI-H460 = test: Cytotoxicity against human NCI-H460 cells incubated for 48 hrs by sulforhodamine B assay; type: functional; details: NCI-H460, 48 h
SK-MEL-5 = test: Cytotoxicity against human SK-MEL-5 cells incubated for 48 hrs by sulforhodamine B assay; type: functional; details: SK-MEL-5, 48 h
TK-10 = test: Cytotoxicity against human TK10 cells incubated for 48 hrs by sulforhodamine B assay; type: functional; details: TK-10, 48 h
MDA-MB-231 = test: Cytotoxicity against human MDA-MB-231 cells incubated for 48 hrs by sulforhodamine B assay; type: functional; details: MDA-MB-231, 48 h
HL-60(TB) = test: Cytotoxicity against human HL-60(TB) cells incubated for 48 hrs by sulforhodamine B assay; type: functional; details: HL-60, 48 h
K562 = test: Cytotoxicity against human K562 cells incubated for 48 hrs by sulforhodamine B assay; type: functional; details: K562, 48 h
OVCAR-4 = test: Cytotoxicity against human OVCAR4 cells incubated for 48 hrs by sulforhodamine B assay; type: functional; details: OVCAR-4, 48 h
T47D = test: Cytotoxicity against human T47D cells incubated for 48 hrs by sulforhodamine B assay; type: functional
COLO 205 = test: Cytotoxicity against human COLO205 cells incubated for 48 hrs by sulforhodamine B assay; type: functional; details: COLO 205, 48 h
LOX IMVI = test: Cytotoxicity against human LOXIMVI cells incubated for 48 hrs by sulforhodamine B assay; type: functional
MDA-MB-468 = test: Cytotoxicity against human MDA-MB-468 cells incubated for 48 hrs by sulforhodamine B assay; type: functional; details: MDA-MB-468, 48 h
A549 [3] = test: Induction of apoptosis in human A549 cells assessed as late apoptotic cells at 1.4 uM after 24 hrs by Annexin V/propidium iodide staining based flow cytometric analysis (reference value: 0.08%); type: functional
U-251 = test: Cytotoxicity against human U251 cells incubated for 48 hrs by sulforhodamine B assay; type: functional; details: U-251, 48 h
SK-OV-3 = test: Cytotoxicity against human SKOV3 cells incubated for 48 hrs by sulforhodamine B assay; type: functional; details: SK-OV-3, 48 h
[4] = read-out: LC50 (the source's name)

Serine/threonine-protein kinase B-raf, sequence (P28028 whole entry, looked up, stated change not applied): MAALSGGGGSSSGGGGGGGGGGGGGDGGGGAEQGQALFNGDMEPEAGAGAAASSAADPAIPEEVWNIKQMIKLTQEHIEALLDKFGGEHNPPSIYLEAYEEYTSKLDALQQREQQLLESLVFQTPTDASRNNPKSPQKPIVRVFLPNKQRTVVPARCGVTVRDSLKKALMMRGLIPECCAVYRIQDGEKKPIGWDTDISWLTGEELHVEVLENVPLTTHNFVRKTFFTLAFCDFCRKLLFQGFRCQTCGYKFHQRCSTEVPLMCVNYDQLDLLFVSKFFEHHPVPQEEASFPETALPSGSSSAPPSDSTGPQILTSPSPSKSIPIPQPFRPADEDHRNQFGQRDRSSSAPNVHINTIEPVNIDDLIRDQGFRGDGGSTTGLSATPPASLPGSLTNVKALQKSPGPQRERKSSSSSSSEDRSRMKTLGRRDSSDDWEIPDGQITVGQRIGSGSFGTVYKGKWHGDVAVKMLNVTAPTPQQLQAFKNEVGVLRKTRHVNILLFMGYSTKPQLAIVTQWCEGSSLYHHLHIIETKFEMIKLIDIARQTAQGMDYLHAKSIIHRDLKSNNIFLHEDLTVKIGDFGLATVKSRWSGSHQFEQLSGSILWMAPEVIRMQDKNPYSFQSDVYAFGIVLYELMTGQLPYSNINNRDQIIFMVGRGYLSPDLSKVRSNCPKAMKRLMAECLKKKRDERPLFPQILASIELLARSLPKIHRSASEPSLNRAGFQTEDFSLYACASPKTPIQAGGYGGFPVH

## COc1ccc(-c2nc3sc(-c4ccc(Cl)cc4)cn3n2)cc1
UACC-62
  GI50: 8.24 µM
  TGI: > 50 µM
UACC-62; [4]
  CC50: > 50 µM
KM12
  GI50: 12.2 µM
  TGI: > 50 µM
KM12; [4]
  CC50: > 50 µM
ACHN
  GI50: 0.927 µM
  TGI: 2.02 µM
ACHN; [4]
  CC50: 4.41 µM
HOP-92
  GI50: 0.91 µM
  TGI: 7.61 µM
HOP-92; [4]
  CC50: > 50 µM
[1]
  IC50: 4.7 µM
SNB-75
  GI50: 1.61 µM
  TGI: 6.85 µM
SNB-75; [4]
  CC50: 23.3 µM
SF-295
  GI50: 2.81 µM
  TGI: 31.8 µM
SF-295; [4]
  CC50: > 50 µM
Tubulin (Homo sapiens)
  Activity: 1510 a.u.
SK-MEL-2
  GI50: > 50 µM
  TGI: > 50 µM
SK-MEL-2; [4]
  CC50: > 50 µM
M14
  GI50: > 50 µM
  TGI: > 50 µM
M14; [4]
  CC50: > 50 µM
A549 [2]
  Activity: 1.34%
786-0
  GI50: 1.06 µM
  TGI: 2.41 µM
786-0; [4]
  CC50: 6.7 µM
NCI-H226
  GI50: 11.1 µM
  TGI: > 50 µM
NCI-H226; [4]
  CC50: > 50 µM
NCI-H23
  GI50: 6.66 µM
  TGI: > 50 µM
NCI-H23; [4]
  CC50: > 50 µM
SF-539
  GI50: 1.85 µM
  TGI: 21.5 µM
SF-539; [4]
  CC50: > 50 µM
RPMI-8226
  GI50: 3.67 µM
  TGI: > 50 µM
RPMI-8226; [4]
  CC50: > 50 µM
MOLT-4
  GI50: 11.3 µM
  TGI: > 50 µM
MOLT-4; [4]
  CC50: > 50 µM
NCI-H460
  GI50: 1.33 µM
  TGI: 4 µM
NCI-H460; [4]
  CC50: 18.9 µM
SK-MEL-5
  GI50: 14 µM
  TGI: > 50 µM
SK-MEL-5; [4]
  CC50: > 50 µM
TK-10
  GI50: 2.01 µM
  TGI: 5.62 µM
TK-10; [4]
  CC50: 34.8 µM
MDA-MB-231
  GI50: 2.06 µM
  TGI: 16.7 µM
MDA-MB-231; [4]
  CC50: > 50 µM
HL-60(TB)
  GI50: > 50 µM
  TGI: > 50 µM
HL-60(TB); [4]
  CC50: > 50 µM
K562
  GI50: 29.4 µM
  TGI: > 50 µM
K562; [4]
  CC50: > 50 µM
OVCAR-4
  GI50: 0.766 µM
  TGI: 1.63 µM
OVCAR-4; [4]
  CC50: 3.45 µM
T47D
  GI50: 3.54 µM
  TGI: > 50 µM
T47D; [4]
  CC50: > 50 µM
COLO 205
  GI50: 2.56 µM
  TGI: > 50 µM
COLO 205; [4]
  CC50: > 50 µM
LOX IMVI
  GI50: > 50 µM
  TGI: > 50 µM
LOX IMVI; [4]
  CC50: > 50 µM
MDA-MB-468
  GI50: 2.08 µM
  TGI: > 50 µM
MDA-MB-468; [4]
  CC50: > 50 µM
A549 [3]
  Activity: 4.62%
U-251
  GI50: 1.03 µM
  TGI: 2.29 µM
U-251; [4]
  CC50: 5.53 µM
SK-OV-3
  GI50: 11.7 µM
  TGI: > 50 µM
SK-OV-3; [4]
  CC50: > 50 µM
